Test results published in article PMC4414066 (Journal of medicinal chemistry, 2015).

Legend:
hGlyR-α1 = target: T1, hGlyR-α1 (Homo sapiens, UniProt P23415); type: cell-based; conditions: for potentiation effect on the channel current (representative traces): 10 μM modulator, glycine EC5, Figure 5a; for potentiation up to the maximum tested concentration: up to 10 μM, glycine EC5
T1 sequence (P23415 29-457): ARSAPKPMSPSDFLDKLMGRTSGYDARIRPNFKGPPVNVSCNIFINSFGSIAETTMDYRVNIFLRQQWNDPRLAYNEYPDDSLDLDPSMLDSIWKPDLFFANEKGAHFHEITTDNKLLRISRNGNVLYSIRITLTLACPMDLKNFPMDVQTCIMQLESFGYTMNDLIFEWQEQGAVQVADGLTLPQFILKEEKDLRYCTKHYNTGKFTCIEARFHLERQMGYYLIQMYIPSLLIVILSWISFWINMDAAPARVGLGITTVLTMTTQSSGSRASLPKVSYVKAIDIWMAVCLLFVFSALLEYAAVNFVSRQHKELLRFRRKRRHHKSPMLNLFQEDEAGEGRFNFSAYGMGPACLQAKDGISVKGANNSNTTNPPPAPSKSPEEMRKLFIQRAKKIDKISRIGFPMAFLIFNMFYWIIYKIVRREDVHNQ

α7nAChR = conditions: previous finding; cited from earlier work

Compound | potentiation effect on the channel current (representative traces) (hGlyR-α1) | potentiation up to the maximum tested concentration (hGlyR-α1) | effect on α7nAChR function (α7nAChR)
O=c1[nH]c2ccccc2n1C1CCN(CCCC(c2ccc(F)cc2)c2ccc(F)cc2)CC1 [Pimozide] | much greater potentiation effect on the channel current than THC |  | 
COc1cc(OC)c(NC(=O)Nc2cc(C)on2)cc1Cl [PNU-120596] |  | did not show potentiation | 
CCCCCc1cc(O)c2c(c1)OC(C)(C)[C@@H]1CCC(C)=C[C@@H]21 [THC, Δ^9-tetrahydrocannabinol] |  |  | little effect
Cc1nc2c([nH]1)-c1ccccc1N(C(=O)c1ccc(NC(=O)c3ccccc3-c3ccccc3)cc1)CC2 [Conivaptan] | no potentiation | did not show potentiation | 
